Assay results from PubChem BioAssay (NCI).
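A five-concentration, 48-hour dose response in 96-well plates underlies each endpoint, interpolated linearly between surrounding concentrations. TGI: concentration producing complete growth inhibition.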

What was measured:
Assay in all cases: DTP human tumour cell line panel, 48 h
CCRF-CEM leukemia = system: CCRF-CEM leukemia
MALME-3M melanoma = system: MALME-3M melanoma
OVCAR-3 ovarian = system: OVCAR-3 ovarian
HOP-62 NSCLC = system: HOP-62 NSCLC
LOX IMVI melanoma = system: LOX IMVI melanoma
SF-268 CNS = system: SF-268 CNS
NCI/ADR-RES ovarian = system: NCI/ADR-RES ovarian
786-0 renal = system: 786-0 renal
A498 renal = system: A498 renal
HOP-92 NSCLC = system: HOP-92 NSCLC

Structure (SMILES)	TGI (CCRF-CEM leukemia) [µM]	TGI (MALME-3M melanoma) [µM]	TGI (OVCAR-3 ovarian) [µM]	TGI (HOP-62 NSCLC) [µM]	TGI (LOX IMVI melanoma) [µM]	TGI (SF-268 CNS) [µM]	TGI (NCI/ADR-RES ovarian) [µM]	TGI (786-0 renal) [µM]	TGI (A498 renal) [µM]	TGI (HOP-92 NSCLC) [µM]
COC(=O)C1=C(C(=O)OC)C2CCC1CC2=O (stereo not given)	> 100	> 100	> 100	> 100	> 100	> 100	> 100	> 100	> 100	
COc1ccc(-c2c3c(n(C4OC(COC(C)=O)C(OC(C)=O)C(OC(C)=O)C4OC(C)=O)c(=S)c2C#N)CCCC3)cc1 (stereo not given)	> 100	> 100	92.6	> 100	> 100	> 100	> 100	> 100	90	
CCCCCCCCC[C@@H]1C[C@H](O)[C@H](Cc2ccccc2)N1C(=O)OC(C)(C)C	55.9	34.5	34.6	34.9		34.6			33.7	28.9
ClC1(Cl)C2CCOC21n1cnc2ccccc21 (stereo not given)	> 100	> 100	> 100	> 100	> 100	> 100	> 100	> 100		
c1ccc2c(CCNC3=NCCO3)cccc2c1	> 10	> 10	> 10	> 10	> 10	> 10	> 10		> 10	
CSc1c(C#N)c(=O)n(N)c2n[nH]c(C)c12	> 100	> 100			> 100	> 100	> 100	> 100	> 100	
O=C1OCC(CN2CCC(n3c(=O)[nH]c4ccccc43)CC2)=C1c1ccccc1	60.5	56.6	60.6	64.5	56.2	95.5	59.6	82.5	68.6	
COc1cc2oc(=O)cc(C)c2c(OC)c1OC	> 100	> 100	> 100	> 100	> 100	> 100	> 100	> 100	96.8	
CNC(=S)c1nnsc1N	> 100	> 100	> 100	> 100	> 100	> 100	> 100	> 100	> 100	
COc1ccc(OC/C(N=Cc2cccnc2)=N/NC(=O)c2ccncc2)cc1	> 100	> 100	> 100	> 100	> 100	> 100	> 100	> 100	> 100	
FC(F)(F)c1ccc(N=NN2CCCC2)cc1	> 100	> 100	> 100	> 100	> 100	> 100		> 100	> 100	> 100
COC(=O)/C=C/[C@H]1[C@H](C)N1S(=O)(=O)c1ccc(C)cc1 (stereo not given in full)	> 100	> 100	> 100	> 100	> 100	> 100	> 100	> 100	> 100	
COc1ccc(-c2nc3ccccc3c(=O)[nH]2)cc1OC	> 100	> 100	> 100	> 100		60	> 100	> 100		
COC(=O)C(Cc1cc(OC)c(OC)c(OC)c1)(NC(=O)c1ccccc1)P(=O)(OC)OC (stereo not given)	> 100			> 100	> 100	> 100			> 100	> 100
O=C(CN1CCOCC1)c1ccc2c(c1)oc(=O)n2CCN1CCCCC1	> 100	> 100	> 100	> 100	> 100	> 100	> 100	> 100	> 100	
CC(C)N=C(NC#N)NS(=O)(=O)c1cnccc1NC1CCCCCCC1	> 100	> 100	> 100	> 100		> 100	> 100	> 100	> 100	
O=C(O)c1cc2sc(C(=O)O)cc2s1	> 100	> 100	> 100	> 100	> 100	> 100			> 100	> 100
C/C(=N\Nc1nc2ccccc2[nH]1)c1ccc2ccccc2n1	3.87	7.85	2.95	8.12	10.2	14.3	7.63	10.7		
CSc1cc(Cl)c(C)cc1S(=O)(=O)NC(=O)NNc1cnc2ccccc2n1	> 100	> 100	> 100	> 100	> 100	> 100	> 100	> 100	> 100	
CCN(CC)C(=O)N1CN(c2ccccc2)C2(CCN(CCCC3(c4ccc(F)cc4)OCCO3)CC2)C1=O	45.9	36.5	31.5	18.6	26.2	45.5	46.4	33.6		
